Measurements published in patent US8436011B2, “Pyridinopyridinone derivatives, preparation thereof and therapeutic use thereof” (Sanofi, priority 2008, dated 2013).
“And” between values parts separate entries of the source, which are not always exact repeats. Equal entries are not always repeated. Structures can show the parent of a compound that is named as a salt.

melting point | Structure (SMILES)
213 °C | CCN1CCCC1CNC(=O)Cc1cccc(-c2ccc3c(=O)c(C(=O)NC)c(N)n(CC)c3n2)c1 (stereo not drawn) (as salt: HCl) [compound 62, 2-amino-1-ethyl-7-[3-(2-{[(1-ethylpyrrolidin-2-yl)methyl]amino}-2-oxoethyl)phenyl]-N-methyl-4-oxo-1,4-dihydro-1,8-naphthyridine-3-carboxamide]
196 °C | CCn1c(N)c(C(=O)NC)c(=O)c2ccc(-c3ccc(CC(=O)NCCCN4CCOCC4)cc3)nc21 (as salt: HCl) [compound 38, 2-amino-1-ethyl-N-methyl-7-(4-{2-[(3-morpholin-4-ylpropyl)amino]-2-oxoethyl}phenyl)-4-oxo-1,4-dihydro-1,8-naphthyridine-3-carboxamide]
> 260 °C | CCn1c(N)c(C(=O)NC)c(=O)c2ccc(-c3ccc(CC(=O)NC4CC4)cc3)nc21 [compound 10, 2-amino-7-{4-[2-(cyclopropylamino)-2-oxoethyl]phenyl}-1-ethyl-N-methyl-4-oxo-1,4-dihydro-1,8-naphthyridine-3-carboxamide]
299 °C | CCn1c(N)c(C(=O)NC)c(=O)c2ccc(-c3ccc(CC(=O)Nc4ccccc4)cc3)nc21
188 to 190 °C and 190 °C | CCN1CCOCC1CNC(=O)Cc1ccc(-c2ccc3c(=O)c(C(=O)NC)c(N)n(CC)c3n2)cc1 (stereo not drawn) (as salt: HCl) [compound 22, 2-amino-1-ethyl-7-[4-(2-{[(4-ethylmorpholin-3-yl)methyl]amino}-2-oxoethyl)phenyl]-N-methyl-4-oxo-1,4-dihydro-1,8-naphthyridine-3-carboxamide]
214 °C | CCN1CCC[C@@H]1CNC(=O)Cc1nc(-c2ccc3c(=O)c(C(=O)NC)c(N)n(CC)c3n2)cs1 [compound 55, 2-amino-1-ethyl-7-{2-[2-({[(2R)-1-ethylpyrrolidin-2-yl]methyl}amino)-2-oxoethyl]-1,3-thiazol-4-yl}-N-methyl-4-oxo-1,4-dihydro-1,8-naphthyridine-3-carboxamide]
214 to 228 °C | CCn1c(N)c(C(=O)NC)c(=O)c2ccc(-c3ccc(CC(=O)NC[C@H]4CCCN4CC(F)F)cc3)nc21 (as salt: HCl) [compound 31, 2-amino-7-{4-[2-({[(2R)-1-(2,2-difluoroethyl)pyrrolidin-2-yl]methyl}amino)-2-oxoethyl]phenyl}-1-ethyl-N-methyl-4-oxo-1,4-dihydro-1,8-naphthyridine-3-carboxamide]
250 °C | CCn1c(N)c(C(=O)NC)c(=O)c2ccc(-c3ccc(CC(=O)Nc4ccncc4)cc3)nc21 (as salt: HCl)
228 °C | CCN1CCCC1CNC(=O)Cc1csc(-c2ccc3c(=O)c(C(=O)NC)c(N)n(CC)c3n2)n1 (stereo not drawn) (as salt: HCl) [compound 43, 2-amino-1-ethyl-7-[4-(2-{[(1-ethylpyrrolidin-2-yl)methyl]amino}-2-oxoethyl)-1,3-thiazol-2-yl]-N-methyl-4-oxo-1,4-dihydro-1,8-naphthyridine-3-carboxamide]
300 °C | CCn1c(N)c(C(=O)NC)c(=O)c2ccc(-c3ccc(CC(=O)NC4CCCC4)cc3)nc21
242 °C | CCn1c(N)c(C(=O)NC)c(=O)c2ccc(-c3ccc(CCNc4ccccn4)cc3)nc21 (as salt: HCl) [compound 64, 2-amino-1-ethyl-N-methyl-4-oxo-7-{4-[2-(pyrid-2-ylamino)ethyl]phenyl}-1,4-dihydro-1,8-naphthyridine-3-carboxamide]
260 °C | CCN1CCCC1CNC(=O)Cc1ccc(-c2ccc3c(=O)c(C(=O)NC)c(N)n(CC4CC4)c3n2)cc1 (stereo not drawn)
260 °C | CCn1c(N)c(C(=O)NC)c(=O)c2ccc(-c3ccc(CC(=O)NC[C@H]4CCCN4CC(F)F)cn3)nc21 (as salt: HCl) [compound 34, 2-amino-7-{5-[2-({[(2R)-1-(2,2-difluoroethyl)pyrrolidin-2-yl]methyl}amino)-2-oxoethyl]pyrid-2-yl}-1-ethyl-N-methyl-4-oxo-1,4-dihydro-1,8-naphthyridine-3-carboxamide]
230 °C | CNC(=O)c1c(N)n(CCCOC)c2nc(-c3ccc(CC(=O)Nc4ccccn4)cc3)ccc2c1=O (as salt: HCl)
262 °C | CCN1CCC[C@H]1CNC(=O)Cc1ccc(-c2ccc3c(=O)c(C(=O)NC)c(N)n(CC)c3n2)cc1 [compound 15, 2-amino-1-ethyl-7-{4-[2-({[(2S)-1-ethylpyrrolidin-2-yl]methyl}amino)-2-oxoethyl]phenyl}-N-methyl-4-oxo-1,4-dihydro-1,8-naphthyridine-3-carboxamide]
266 °C | CCn1c(N)c(C(=O)NC)c(=O)c2ccc(-c3ccc(CC(=O)Nc4ccccn4)nc3)nc21 [compound 21, 2-amino-1-ethyl-N-methyl-4-oxo-7-{6-[2-oxo-2-(pyrid-2-ylamino)-ethyl]pyrid-3-yl}-1,4-dihydro-1,8-naphthyridine-3-carboxamide]
253 °C | CCN1CCC[C@@H]1CNC(=O)Cc1ccc(-c2ccc3c(=O)c(C(=O)NC)c(N)n(CC)c3n2)c(F)c1 [compound 56, 2-amino-1-ethyl-7-{4-[2-({[(2R)-1-ethylpyrrolidin-2-yl]methyl}amino)-2-oxoethyl]-2-fluorophenyl}-N-methyl-4-oxo-1,4-dihydro-1,8-naphthyridine-3-carboxamide]
222 °C | CCn1c(N)c(C(=O)NC)c(=O)c2ccc(-c3ccc(CC(=O)NCCc4cccnc4)cc3)nc21 (as salt: HCl) [compound 37, 2-amino-1-ethyl-N-methyl-4-oxo-7-(4-{2-oxo-2-[(2-pyrid-3-ylethyl)amino]-ethyl}phenyl)-1,4-dihydro-1,8-naphthyridine-3-carboxamide]
290 °C | CCn1c(N)c(C(=O)NC)c(=O)c2ccc(-c3ccc(CC(=O)Nc4cnccn4)cc3)nc21 [compound 13, 2-amino-1-ethyl-N-methyl-4-oxo-7-{4-[2-oxo-2-(pyrazin-2-ylamino)ethyl]-phenyl}-1,4-dihydro-1,8-naphthyridine-3-carboxamide]
275 °C | CCN1CCCC1CNC(=O)Cc1ccc(-c2ccc3c(=O)c(C(=O)NC)c(N)n(CC)c3n2)cc1F (stereo not drawn) [compound 58, 2-amino-7-[3-fluoro-4-(2-{[(1-ethylpyrrolidin-2-yl)methyl]amino}-2-oxoethyl)phenyl]-1-ethyl-N-methyl-4-oxo-1,4-dihydro-1,8-naphthyridine-3-carboxamide]
315 °C | CCn1c(N)c(C(=O)NC)c(=O)c2ccc(-c3ccc(CC(=O)NC(C)C)cc3)nc21 [compound 11, 2-amino-1-ethyl-N-methyl-7-(4-{2-[(1-methylethyl)amino]-2-oxoethyl}-phenyl)-4-oxo-1,4-dihydro-1,8-naphthyridine-3-carboxamide]
252 °C | CCn1c(N)c(C(=O)NC)c(=O)c2ccc(-c3ccc(CC(=O)NCCc4cccn4C)cc3)nc21 [compound 42, 2-amino-1-ethyl-N-methyl-7-[4-(2-{[2-(1-methyl-1H-pyrrol-2-yl)-ethyl]amino}-2-oxoethyl)phenyl]-4-oxo-1,4-dihydro-1,8-naphthyridine-3-carboxamide]
194 °C | CCn1c(N)c(C(=O)NC)c(=O)c2ccc(-c3ccc(CC(=O)NC[C@H]4CCCN4CCF)cn3)nc21 (as salt: HCl) [compound 29, 2-amino-1-ethyl-7-{5-[2-({[(2R)-1-(2-fluoroethyl)pyrrolidin-2-yl]methyl}-amino)-2-oxoethyl]pyrid-2-yl}-N-methyl-4-oxo-1,4-dihydro-1,8-naphthyridine-3-carboxamide]
248 °C | CCn1c(N)c(C(=O)NC)c(=O)c2ccc(-c3ccc(CC(=O)NCCc4ccccn4)cc3)nc21 (as salt: HCl)
300 °C | CCN1CCCC1CNC(=O)Cc1ccc(-c2ccc3c(=O)c(C(=O)NC)c(N)n(CC(F)(F)F)c3n2)cc1 (stereo not drawn) [compound 49, 2-amino-7-[4-(2-{[(1-ethylpyrrolidin-2-yl)methyl]amino}-2-oxoethyl)-phenyl]-N-methyl-4-oxo-1-(2,2,2-trifluoroethyl)-1,4-dihydro-1,8-naphthyridine-3-carboxamide]
220 to 222 °C | CCn1c(N)c(C(=O)NC)c(=O)c2ccc(-c3ccc(CC(=O)NCCN4CCOCC4)cc3)nc21 (as salt: HCl) [compound 18, 2-amino-1-ethyl-N-methyl-7-(4-{2-[(2-morpholin-4-ylethyl)amino]-2-oxoethyl}phenyl)-4-oxo-1,4-dihydro-1,8-naphthyridine-3-carboxamide]
190 °C | CCN1CCOCC1CNC(=O)C(C)c1ccc(-c2ccc3c(=O)c(C(=O)NC)c(N)n(CC)c3n2)cc1 (stereo not drawn) (as salt: HCl) [compound 25, 2-amino-1-ethyl-7-[4-(2-{[(4-ethylmorpholin-3-yl)methyl]amino}-1-methyl-2-oxoethyl)phenyl]-N-methyl-4-oxo-1,4-dihydro-1,8-naphthyridine-3-carboxamide]
192 °C | CCn1c(N)c(C(=O)NC)c(=O)c2ccc(-c3ccc(CC(=O)NCC4COCCN4C(C)C)cc3)nc21 (stereo not drawn) (as salt: HCl) [compound 32, 2-amino-1-ethyl-N-methyl-7-{4-[2-({[4-(1-methylethyl)morpholin-3-yl]-methyl}amino)-2-oxoethyl]phenyl}-4-oxo-1,4-dihydro-1,8-naphthyridine-3-carboxamide]
233 °C | CCN1CCC[C@@H]1CNC(=O)Cc1ccc(-c2ccc3c(=O)c(C(=O)NC)c(N)n(CC(C)C)c3n2)cc1 [compound 53, 2-amino-7-{4-[2-({[(2R)-1-ethylpyrrolidin-2-yl]methyl}amino)-2-oxoethyl]-phenyl}-N-methyl-1-(2-methylpropyl)-4-oxo-1,4-dihydro-1,8-naphthyridine-3-carboxamide]
180 °C | CCn1c(N)c(C(=O)NC)c(=O)c2ccc(-c3ccc(CC(=O)NC[C@H]4CCCN4CCF)cc3)nc21 (as salt: hydrochloride) [compound 27, 2-amino-1-ethyl-7-{4-[2-({[(2R)-1-(2-fluoroethyl)pyrrolidin-2-yl]methyl}-amino)-2-oxoethyl]phenyl}-N-methyl-4-oxo-1,4-dihydro-1,8-naphthyridine-3-carboxamide]
